# Assay results as given in patent US12637469B2, “1H-pyrazole derivative and application thereof as dual target inhibitor of Syk and VEGFR2” (Ocumension Therapeutics (Suzhou) Co., Ltd., priority 2020, dated 2026).
# Key:
# Txk(h) = molecular target: T1, Txk(h) (Homo sapiens, UniProt P42681); experiment: Eurofins KinaseProfiler off-target kinase inhibition; assay type: biochemical
# T1 construct: purchased Eurofins (KinaseProfiler platform)
# Protocol: (§1) In order to investigate the specificity of the inhibition of the target by the compound, in this study, the activity and selectivity of test compound 1 on the off-target kinases in related pathways were tested on the Eurofins kinaseProfiler™ platform, and compound screening and analysis were conducted using IC50 value as the indicator.
# (§2) Compound 1 was detected for each selected kinase using the standard Eurofins Kinase Profiler™ protocol, which followed the relevant standard operating procedures. The IC50 values of the inhibitory activity of the test compound 1 on 67 kinases including Abl(h), B-Raf(h), BTK(h) and JAK(h) were analyzed.
# c-kit(h) = molecular target: T2, c-kit(h) (Homo sapiens, UniProt P10721); experiment: as above; assay type: biochemical
# T2 construct: purchased Eurofins (KinaseProfiler platform)
# Protocol: as §1, §2
# Lyn(h) = molecular target: T3, Lyn(h) (Homo sapiens, UniProt P07948); experiment: as above; assay type: biochemical
# T3 construct: purchased Eurofins (KinaseProfiler service)
# Protocol: as §1, §2
# Flt1(h) = molecular target: T4, Flt1(h) (Homo sapiens, UniProt P17948); experiment: as above; assay type: biochemical
# T4 construct: purchased Eurofins (KinaseProfiler platform)
# Protocol: as §1, §2
# CDK4/cyclinD3(h) = molecular target: T5, CDK4/cyclinD3(h) (Homo sapiens, UniProt P11802); experiment: as above; assay type: biochemical
# T5 construct: purchased Eurofins (KinaseProfiler platform)
# Protocol: as §1, §2
# Itk(h) = molecular target: T6, Itk(h) (Homo sapiens, UniProt Q08881); experiment: as above; assay type: biochemical
# T6 construct: purchased Eurofins (KinaseProfiler service)
# T6 sequence (Q08881 whole entry): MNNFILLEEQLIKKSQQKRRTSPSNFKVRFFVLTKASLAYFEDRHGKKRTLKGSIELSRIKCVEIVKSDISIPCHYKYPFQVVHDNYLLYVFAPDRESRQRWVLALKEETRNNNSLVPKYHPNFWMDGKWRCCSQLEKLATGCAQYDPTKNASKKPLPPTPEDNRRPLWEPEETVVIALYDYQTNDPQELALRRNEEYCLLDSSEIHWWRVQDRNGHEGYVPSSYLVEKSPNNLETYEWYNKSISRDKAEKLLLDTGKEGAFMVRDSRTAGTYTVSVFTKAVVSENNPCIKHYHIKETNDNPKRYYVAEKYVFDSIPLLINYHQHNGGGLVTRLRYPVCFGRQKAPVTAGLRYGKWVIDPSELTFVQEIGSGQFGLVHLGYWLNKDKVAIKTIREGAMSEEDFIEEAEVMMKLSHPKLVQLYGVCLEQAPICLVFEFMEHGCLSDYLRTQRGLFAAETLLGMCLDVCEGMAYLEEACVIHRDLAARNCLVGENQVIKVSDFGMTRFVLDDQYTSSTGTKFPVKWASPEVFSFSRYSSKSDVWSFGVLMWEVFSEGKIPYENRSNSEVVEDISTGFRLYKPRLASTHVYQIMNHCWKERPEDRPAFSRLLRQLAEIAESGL
# Protocol: as §1, §2
# JAK1(h) = molecular target: T7, JAK1(h) (Homo sapiens, UniProt P23458); experiment: as above; assay type: biochemical
# T7 construct: purchased Eurofins (KinaseProfiler service)
# Protocol: as §1, §2
# JNK2α2(h) = molecular target: T8, JNK2α2(h) (Homo sapiens, UniProt P45984); experiment: as above; assay type: biochemical
# T8 construct: purchased Eurofins (KinaseProfiler service)
# Protocol: as §1, §2
# B-Raf(h) = molecular target: T9, B-Raf(h) (Homo sapiens, UniProt P15056); experiment: as above; assay type: biochemical
# T9 construct: purchased Eurofins (KinaseProfiler platform)
# T9 sequence (P15056 whole entry): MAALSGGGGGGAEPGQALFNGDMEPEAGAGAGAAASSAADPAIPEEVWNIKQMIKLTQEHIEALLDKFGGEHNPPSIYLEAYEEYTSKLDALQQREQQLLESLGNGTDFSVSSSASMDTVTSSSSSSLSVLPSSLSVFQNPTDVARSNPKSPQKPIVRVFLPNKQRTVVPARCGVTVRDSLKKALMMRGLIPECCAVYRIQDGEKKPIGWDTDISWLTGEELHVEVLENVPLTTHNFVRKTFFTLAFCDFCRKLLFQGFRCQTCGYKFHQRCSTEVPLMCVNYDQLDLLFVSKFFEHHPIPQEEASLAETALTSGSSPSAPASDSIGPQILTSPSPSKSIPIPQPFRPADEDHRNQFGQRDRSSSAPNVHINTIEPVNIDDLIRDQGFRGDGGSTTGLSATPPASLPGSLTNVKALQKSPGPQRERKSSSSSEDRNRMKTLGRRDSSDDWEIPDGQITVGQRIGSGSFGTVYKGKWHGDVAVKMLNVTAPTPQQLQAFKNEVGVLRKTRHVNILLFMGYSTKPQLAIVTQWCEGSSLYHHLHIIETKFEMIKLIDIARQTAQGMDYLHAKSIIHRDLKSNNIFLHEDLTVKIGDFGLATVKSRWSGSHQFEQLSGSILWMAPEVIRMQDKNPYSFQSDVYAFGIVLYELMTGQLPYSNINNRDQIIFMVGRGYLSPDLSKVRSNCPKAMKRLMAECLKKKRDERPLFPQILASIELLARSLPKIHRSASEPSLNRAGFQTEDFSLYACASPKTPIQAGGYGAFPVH
# Protocol: as §1, §2
# Src(1-530)(h) = molecular target: T10, Src(1-530)(h) (Homo sapiens, UniProt P12931); experiment: as above; assay type: biochemical
# T10 construct: Src(1-530)(h); purchased Eurofins (KinaseProfiler platform)
# T10 sequence (P12931 1-530): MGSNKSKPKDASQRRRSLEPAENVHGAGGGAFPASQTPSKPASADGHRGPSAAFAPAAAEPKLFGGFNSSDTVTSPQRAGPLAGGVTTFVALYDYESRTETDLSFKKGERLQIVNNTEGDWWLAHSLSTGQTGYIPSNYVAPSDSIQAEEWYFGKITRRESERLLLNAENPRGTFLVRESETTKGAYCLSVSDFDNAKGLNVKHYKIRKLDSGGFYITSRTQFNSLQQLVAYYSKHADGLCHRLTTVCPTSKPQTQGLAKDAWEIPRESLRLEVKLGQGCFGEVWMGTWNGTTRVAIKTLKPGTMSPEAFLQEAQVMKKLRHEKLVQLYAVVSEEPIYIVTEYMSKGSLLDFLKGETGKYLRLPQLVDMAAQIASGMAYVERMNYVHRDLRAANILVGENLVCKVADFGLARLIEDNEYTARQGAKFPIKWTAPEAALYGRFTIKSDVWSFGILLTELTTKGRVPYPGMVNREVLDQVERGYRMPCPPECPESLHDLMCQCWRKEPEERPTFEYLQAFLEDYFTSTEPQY
# Protocol: as §1, §2
# JAK2(h) = molecular target: T11, JAK2(h) (Homo sapiens, UniProt O60674); experiment: as above; assay type: biochemical
# T11 construct: purchased Eurofins (KinaseProfiler service)
# T11 sequence (O60674 whole entry): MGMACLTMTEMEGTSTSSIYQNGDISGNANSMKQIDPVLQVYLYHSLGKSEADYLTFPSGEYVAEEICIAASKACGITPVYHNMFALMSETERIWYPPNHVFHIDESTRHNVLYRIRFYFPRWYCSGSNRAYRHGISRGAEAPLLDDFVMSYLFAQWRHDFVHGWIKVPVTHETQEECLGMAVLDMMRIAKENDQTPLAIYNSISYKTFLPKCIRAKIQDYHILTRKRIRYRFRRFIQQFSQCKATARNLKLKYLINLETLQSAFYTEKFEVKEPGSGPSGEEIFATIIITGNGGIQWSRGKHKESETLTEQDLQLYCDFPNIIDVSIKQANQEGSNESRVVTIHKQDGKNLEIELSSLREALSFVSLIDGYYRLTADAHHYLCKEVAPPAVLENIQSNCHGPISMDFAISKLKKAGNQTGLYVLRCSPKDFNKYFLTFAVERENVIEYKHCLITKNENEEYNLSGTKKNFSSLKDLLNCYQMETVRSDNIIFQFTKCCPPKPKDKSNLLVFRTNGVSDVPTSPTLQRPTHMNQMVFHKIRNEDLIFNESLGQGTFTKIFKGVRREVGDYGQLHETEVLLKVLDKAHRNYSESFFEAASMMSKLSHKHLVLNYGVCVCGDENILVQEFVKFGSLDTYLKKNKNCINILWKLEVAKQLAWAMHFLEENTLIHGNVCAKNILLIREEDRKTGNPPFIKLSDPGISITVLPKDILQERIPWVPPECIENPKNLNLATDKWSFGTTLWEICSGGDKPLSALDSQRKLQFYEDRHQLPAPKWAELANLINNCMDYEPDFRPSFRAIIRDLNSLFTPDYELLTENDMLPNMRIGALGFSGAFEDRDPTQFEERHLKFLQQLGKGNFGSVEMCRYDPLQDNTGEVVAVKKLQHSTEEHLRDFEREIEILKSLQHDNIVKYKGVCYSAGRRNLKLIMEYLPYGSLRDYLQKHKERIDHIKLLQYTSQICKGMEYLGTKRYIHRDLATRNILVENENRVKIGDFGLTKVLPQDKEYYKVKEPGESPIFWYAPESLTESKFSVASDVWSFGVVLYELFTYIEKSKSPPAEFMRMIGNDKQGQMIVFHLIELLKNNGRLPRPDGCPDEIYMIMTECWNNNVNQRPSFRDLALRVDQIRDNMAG
# Protocol: as §1, §2
# IR(h) = molecular target: T12, IR(h) (Homo sapiens, UniProt P06213); experiment: as above; assay type: biochemical
# T12 construct: purchased Eurofins (KinaseProfiler service)
# T12 sequence (P06213 28-1382): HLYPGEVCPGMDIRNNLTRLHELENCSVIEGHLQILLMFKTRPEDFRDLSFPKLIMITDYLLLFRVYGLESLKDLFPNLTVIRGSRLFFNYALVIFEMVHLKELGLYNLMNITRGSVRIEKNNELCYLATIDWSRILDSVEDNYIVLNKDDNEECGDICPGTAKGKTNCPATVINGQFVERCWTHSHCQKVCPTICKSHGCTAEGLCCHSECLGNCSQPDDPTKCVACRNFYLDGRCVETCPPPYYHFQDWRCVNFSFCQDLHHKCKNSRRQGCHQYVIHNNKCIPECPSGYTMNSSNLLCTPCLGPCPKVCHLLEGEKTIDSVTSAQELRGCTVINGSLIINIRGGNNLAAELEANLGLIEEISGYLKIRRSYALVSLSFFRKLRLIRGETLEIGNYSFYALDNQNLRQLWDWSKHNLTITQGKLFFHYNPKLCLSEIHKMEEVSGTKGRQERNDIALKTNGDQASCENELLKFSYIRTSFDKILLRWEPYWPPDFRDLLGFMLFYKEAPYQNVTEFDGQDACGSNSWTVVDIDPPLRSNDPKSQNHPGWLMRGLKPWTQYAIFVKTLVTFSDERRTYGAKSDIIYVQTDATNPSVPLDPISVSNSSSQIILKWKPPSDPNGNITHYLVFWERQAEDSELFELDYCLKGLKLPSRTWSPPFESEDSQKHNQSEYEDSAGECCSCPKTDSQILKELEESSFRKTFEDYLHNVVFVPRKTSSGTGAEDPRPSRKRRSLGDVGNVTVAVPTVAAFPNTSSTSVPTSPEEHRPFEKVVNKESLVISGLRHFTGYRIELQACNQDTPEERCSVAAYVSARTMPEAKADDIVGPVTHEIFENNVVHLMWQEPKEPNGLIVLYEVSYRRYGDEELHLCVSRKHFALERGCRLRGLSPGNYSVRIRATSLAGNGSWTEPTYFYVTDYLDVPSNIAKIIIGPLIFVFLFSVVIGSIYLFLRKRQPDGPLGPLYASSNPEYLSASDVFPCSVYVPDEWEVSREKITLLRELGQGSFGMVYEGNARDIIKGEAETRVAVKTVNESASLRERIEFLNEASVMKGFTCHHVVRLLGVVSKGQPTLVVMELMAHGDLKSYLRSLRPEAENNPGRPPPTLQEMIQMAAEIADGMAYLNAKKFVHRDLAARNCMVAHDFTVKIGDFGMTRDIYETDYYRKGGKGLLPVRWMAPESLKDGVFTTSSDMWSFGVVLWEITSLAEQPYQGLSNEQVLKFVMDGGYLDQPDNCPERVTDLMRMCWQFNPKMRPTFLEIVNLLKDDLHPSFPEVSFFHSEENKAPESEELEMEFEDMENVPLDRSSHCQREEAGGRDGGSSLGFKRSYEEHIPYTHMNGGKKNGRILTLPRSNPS
# Protocol: as §1, §2
# MAPK1(h) = molecular target: T13, MAPK1(h) (Homo sapiens, UniProt P27361); experiment: as above; assay type: biochemical
# T13 construct: purchased Eurofins (KinaseProfiler service)
# Protocol: as §1, §2
# CSK(h) = molecular target: T14, CSK(h) (Homo sapiens, UniProt P41240); experiment: as above; assay type: biochemical
# T14 construct: purchased Eurofins (KinaseProfiler platform)
# Protocol: as §1, §2
# [1] = Pharmacokinetic evaluation of ocular administration to mouse (cornea and plasma exposure); assay type: in vivo, C57BL/6 mice; settings: eye drop, 0.1 mg/animal
# Protocol: In order to investigate the eye-to-blood ratio of the in vivo exposure amounts of the compound after ocular administration thereof, LC-MS/MS method was used in this study to determine the exposure amounts of compound 1 in cornea and plasma after the ocular administration of the compound 1 to a mouse, where compound screening and analysis were conducted by using the drug concentration at the same time point as an indicator.
# C57BL/6 mice, weighing 18-20 g, were randomly divided into 4 groups after 3-5 days of acclimatization, with each group including three mice, and the mice were administered by eye drops at 5 μL for each eye.
# The test animals (C57BL/6 mice) were not fasted before administration, but drank water freely before and during the experiment.
# About 0.05 mL of blood was collected from saphenous vein at 1 hour and 3 hours following the eye drop administration, anticoagulated with commercial EDTA-K2, and transferred to a centrifuge for centrifugation. After blood sampling from saphenous vein, the corneas were collected under isoflurane anesthesia. At each of the time points, the plasma and corneas of the mice in the same group were pooled for detection.
# Plasma: within 30 minutes the plasma was transferred to be subject to centrifugation at 4° C., 3200 g for 10 minutes, and 20 μL of plasma was taken from each mouse. At each time point, the plasma of the mice in the same group was pooled for detection.
# Cornea: the cornea was removed, rinsed twice with pre-cooled normal saline, dried with a paper towel, and put into a 1.5 mL centrifuge tube, weighed with an analytical balance by a peeling method, and finally the body weight was weighed. At each time point, the corneas of the mice in the same group were pooled for detection.
# Corneal homogenization method: 1 g of cornea was added to 9 mL of pre-cooled methanol: 15 mM phosphate buffer solution=1:2, an ultrasonic cell disruptor (No. 2 amplitude rod, amplitude 50%, working for 5 s, stopping for 5 s, and ultrasonic treatment for 3 min) was used.
# T1 sequence (P42681 whole entry): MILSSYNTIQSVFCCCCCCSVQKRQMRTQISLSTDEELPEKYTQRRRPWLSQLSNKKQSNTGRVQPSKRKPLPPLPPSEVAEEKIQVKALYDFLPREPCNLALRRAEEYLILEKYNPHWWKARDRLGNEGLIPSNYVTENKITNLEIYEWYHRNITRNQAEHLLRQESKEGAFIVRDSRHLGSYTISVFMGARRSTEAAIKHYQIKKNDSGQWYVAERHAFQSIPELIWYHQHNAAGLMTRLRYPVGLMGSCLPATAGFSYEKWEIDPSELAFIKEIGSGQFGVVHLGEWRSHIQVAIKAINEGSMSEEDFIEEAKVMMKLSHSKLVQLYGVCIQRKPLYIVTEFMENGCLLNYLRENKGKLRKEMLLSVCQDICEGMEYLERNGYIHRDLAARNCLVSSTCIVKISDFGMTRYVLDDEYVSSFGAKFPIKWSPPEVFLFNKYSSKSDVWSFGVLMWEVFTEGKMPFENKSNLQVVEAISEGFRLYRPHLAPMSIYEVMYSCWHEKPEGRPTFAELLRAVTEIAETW
structure (smiles),measurement,setting,value
c1cn2c(n1)c(Nc1ccc(N3CCOCC3)cc1)nc1ccc(-c3cn[nH]c3)cc12 [Compound 1],IC50,Txk(h),227 nM
same,IC50,c-kit(h),2840 nM
same,IC50,Lyn(h),934 nM
same,IC50,Flt1(h),104 nM
same,IC50,CDK4/cyclinD3(h),> 10000 nM
same,IC50,Itk(h),1850 nM
same,IC50,JAK1(h),663 nM
same,IC50,JNK2α2(h),> 10000 nM
same,IC50,B-Raf(h),91 nM
same,IC50,Src(1-530)(h),827 nM
same,IC50,JAK2(h),141 nM
same,IC50,IR(h),> 10000 nM
same,IC50,MAPK1(h),> 10000 nM
same,IC50,CSK(h),> 10000 nM
same,Kp at 1 h,"[1]; C57BL/6, cornea / plasma, other: eye drops (ocular administration), 1 hour, read-out: eye-to-blood ratio",641
same,Kp at 3 h,"[1]; C57BL/6, cornea / plasma, other: eye drops (ocular administration), 3 hours, read-out: eye-to-blood ratio",427
same,concentration at 1 h,"[1]; C57BL/6, plasma, other: eye drops (ocular administration), 1 hour, read-out: Drug concentration in plasma",10.4 nM
same,concentration at 3 h,"[1]; C57BL/6, plasma, other: eye drops (ocular administration), 3 hours, read-out: Drug concentration in plasma",6.8 nM
same,Drug concentration in corneal,[1]; 1 hour,6670 nmol/kg
same,Drug concentration in corneal,[1]; 3 hours,2910 nmol/kg
